The source made the active and inactive calls. Some results are limits rather than exact numbers.

Here are results for four compounds from ChEMBL document CHEMBL1201862, “PubChem BioAssay data set” (2004).

The target of experiment [1] is T1, Short transient receptor potential channel 4 (Mus musculus, UniProt Q9QUQ5).
T1 sequence (Q9QUQ5 whole entry): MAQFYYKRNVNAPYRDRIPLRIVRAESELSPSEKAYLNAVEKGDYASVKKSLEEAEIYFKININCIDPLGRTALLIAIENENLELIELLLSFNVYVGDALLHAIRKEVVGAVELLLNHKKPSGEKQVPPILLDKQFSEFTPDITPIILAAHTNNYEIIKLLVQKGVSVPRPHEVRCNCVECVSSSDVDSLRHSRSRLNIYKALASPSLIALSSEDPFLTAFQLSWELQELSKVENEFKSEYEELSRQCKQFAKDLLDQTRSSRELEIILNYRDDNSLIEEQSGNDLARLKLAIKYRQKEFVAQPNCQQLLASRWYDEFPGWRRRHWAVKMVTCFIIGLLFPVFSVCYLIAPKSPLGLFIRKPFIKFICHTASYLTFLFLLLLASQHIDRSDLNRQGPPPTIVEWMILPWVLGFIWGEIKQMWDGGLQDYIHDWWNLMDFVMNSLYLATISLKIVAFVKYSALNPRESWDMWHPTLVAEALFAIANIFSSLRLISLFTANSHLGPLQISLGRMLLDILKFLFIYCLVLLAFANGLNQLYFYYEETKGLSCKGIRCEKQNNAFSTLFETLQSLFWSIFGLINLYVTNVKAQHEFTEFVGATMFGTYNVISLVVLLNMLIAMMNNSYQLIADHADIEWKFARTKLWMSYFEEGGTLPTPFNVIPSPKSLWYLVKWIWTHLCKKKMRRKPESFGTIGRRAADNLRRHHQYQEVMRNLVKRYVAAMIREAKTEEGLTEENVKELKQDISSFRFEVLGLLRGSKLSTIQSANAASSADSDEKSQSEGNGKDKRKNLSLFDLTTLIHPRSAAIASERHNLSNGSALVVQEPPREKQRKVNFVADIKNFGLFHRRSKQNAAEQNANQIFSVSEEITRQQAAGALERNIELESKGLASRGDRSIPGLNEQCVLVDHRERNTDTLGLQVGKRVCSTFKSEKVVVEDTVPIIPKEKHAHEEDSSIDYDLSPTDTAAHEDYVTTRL
The experiment in a line: mouse TRPC4 channel inhibitors, dose response, cell-based, HEK293 TRPC4/mu-opioid, Fluo-4 calcium (AID 434942).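 Also: potency of inhibitors blocking the TRPC4 calcium response.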 The class given is functional.

The target in a further experiment is T2, Caspase-3 (Homo sapiens, UniProt P42574).
T2 sequence (P42574 whole entry): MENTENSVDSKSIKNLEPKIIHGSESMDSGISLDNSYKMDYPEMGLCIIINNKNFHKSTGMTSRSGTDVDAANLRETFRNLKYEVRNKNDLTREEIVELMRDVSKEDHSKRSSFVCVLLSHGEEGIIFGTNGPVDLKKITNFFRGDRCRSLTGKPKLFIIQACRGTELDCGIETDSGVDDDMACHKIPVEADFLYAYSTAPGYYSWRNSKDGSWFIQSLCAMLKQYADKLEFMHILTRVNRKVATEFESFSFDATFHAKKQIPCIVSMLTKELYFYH
Nature of the experiment: SAR Analysis of small molecule inhibitors of Sentrin-specific proteases (SENPs) using a Caspase-3 Selectivity assay. [Related pubchem assays (depositor defined):AID2540, AID2599, AID434973, AID489001]. The class given is functional.

Experiment [2] concerns the target T3, Sentrin-specific protease 6 (Homo sapiens, UniProt Q9GZR1).
T3 sequence (Q9GZR1 whole entry): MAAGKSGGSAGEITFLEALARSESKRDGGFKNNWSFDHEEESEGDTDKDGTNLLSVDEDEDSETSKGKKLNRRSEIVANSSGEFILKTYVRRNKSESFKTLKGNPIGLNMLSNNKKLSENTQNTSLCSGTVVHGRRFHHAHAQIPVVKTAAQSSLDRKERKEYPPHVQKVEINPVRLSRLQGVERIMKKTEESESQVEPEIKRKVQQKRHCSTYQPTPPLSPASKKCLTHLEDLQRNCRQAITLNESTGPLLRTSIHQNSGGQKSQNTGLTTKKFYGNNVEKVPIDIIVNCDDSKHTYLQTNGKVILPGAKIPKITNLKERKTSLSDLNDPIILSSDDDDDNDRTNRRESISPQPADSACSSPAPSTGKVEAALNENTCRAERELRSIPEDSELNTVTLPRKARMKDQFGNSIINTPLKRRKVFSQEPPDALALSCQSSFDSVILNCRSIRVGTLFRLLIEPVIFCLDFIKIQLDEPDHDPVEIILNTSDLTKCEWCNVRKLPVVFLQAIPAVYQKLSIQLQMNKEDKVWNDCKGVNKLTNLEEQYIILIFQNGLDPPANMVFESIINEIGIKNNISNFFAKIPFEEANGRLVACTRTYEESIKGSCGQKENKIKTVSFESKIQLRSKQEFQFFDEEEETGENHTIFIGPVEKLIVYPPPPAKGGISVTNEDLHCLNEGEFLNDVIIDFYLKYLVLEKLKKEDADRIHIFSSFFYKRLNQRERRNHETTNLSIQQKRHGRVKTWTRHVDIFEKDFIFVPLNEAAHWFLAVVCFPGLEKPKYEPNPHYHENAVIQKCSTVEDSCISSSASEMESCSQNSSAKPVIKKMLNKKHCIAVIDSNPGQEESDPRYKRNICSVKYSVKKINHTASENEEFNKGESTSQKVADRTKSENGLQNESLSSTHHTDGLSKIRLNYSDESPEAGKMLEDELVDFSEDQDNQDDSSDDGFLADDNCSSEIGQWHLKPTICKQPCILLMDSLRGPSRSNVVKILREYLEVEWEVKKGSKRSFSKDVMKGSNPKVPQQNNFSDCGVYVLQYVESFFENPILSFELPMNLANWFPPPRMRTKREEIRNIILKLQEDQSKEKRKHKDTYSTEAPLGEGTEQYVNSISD
The experiment in a line: SAR Analysis of small molecule inhibitors of Sentrin-specific protease 6 (SENP6) using a Luminescent assay. [Related pubchem assays (depositor defined):AID2582, AID2599]. The class given is functional.

The target of experiment [3] is Serine/threonine-protein phosphatase PP1-alpha catalytic subunit (Homo sapiens, UniProt P62136). Nature of the experiment: PP1 phosphatase inhibitors, dose response, biochemical, fluorescence (AID 2394).
Sequence of Serine/threonine-protein phosphatase PP1-alpha catalytic subunit (P62136 whole entry): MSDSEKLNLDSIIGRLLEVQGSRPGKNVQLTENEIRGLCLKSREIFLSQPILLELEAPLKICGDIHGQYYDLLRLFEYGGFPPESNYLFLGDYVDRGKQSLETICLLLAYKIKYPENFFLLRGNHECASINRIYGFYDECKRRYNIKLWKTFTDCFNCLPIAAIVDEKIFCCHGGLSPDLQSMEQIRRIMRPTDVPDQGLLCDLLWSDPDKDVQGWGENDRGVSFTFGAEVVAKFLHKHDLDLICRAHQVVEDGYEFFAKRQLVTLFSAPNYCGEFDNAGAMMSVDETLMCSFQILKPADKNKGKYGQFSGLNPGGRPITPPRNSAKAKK
In experiment [4] the target is T4, Mitochondrial peptide methionine sulfoxide reductase (Bos taurus, UniProt P54149).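 Also: absorbance read-out, biochemical high-throughput dose-response screen for MsrA inhibitors, confirmatory; recombinant bovine MsrA coupled to E. coli TrxB with NADPH and selenocystamine; potency is for inhibitors of MsrA activity on DMSO substrate.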
T4 sequence (P54149 whole entry): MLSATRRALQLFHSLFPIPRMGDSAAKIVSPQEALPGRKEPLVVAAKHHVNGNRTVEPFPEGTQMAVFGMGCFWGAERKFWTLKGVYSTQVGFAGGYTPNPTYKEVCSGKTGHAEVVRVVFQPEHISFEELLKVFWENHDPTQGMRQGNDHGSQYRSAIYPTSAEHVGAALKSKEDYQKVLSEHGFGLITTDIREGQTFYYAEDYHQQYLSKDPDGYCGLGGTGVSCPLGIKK
Type of experiment: functional.

Experiment [5] can be described thus: cytotoxicity in HEK-293T cells, dose response, cytotoxicity control for TCR NF-kB inhibitor project, luminescence, T-cell screen hits (AID 489026).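 Also: cells exposed to compound about 14 hours before the viability readout.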 The class given is functional, cell-based.
Experiment [6] can be described thus: Luminescence Cell-Based Dose Retest to Confirm Inhibitors of Cancer Stem Cells. [Related pubchem assays (depositor defined):AID2717, AID2721]. The class given is functional. Particulars: Homo sapiens.
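For AC50 in this document: cells exposed to compound for roughly 70 hours or longer before luminescence read.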

By EC50 is commonly meant the concentration giving half of the maximal effect. For the compound `Cc1cccc(C)c1-n1cccc1/C=C1\SC(=S)N(c2cccc(C(=O)O)c2)C1=O`, the EC50 in experiment [1] is 3.35 µM (active). By IC50 is commonly meant the concentration at which inhibition is half-maximal. Take `Oc1ccc(/C=N/Nc2cc(N3CCCC3)nc(N3CCCC3)n2)cc1`: the IC50 at Caspase-3 was > 99 µM (inactive); in experiment [2], 18.1 µM (active); in experiment [3] it was > 67 µM (not active).

As to `COc1ccc(S(=O)(=O)/N=C2\C=C(Nc3ccc(O)cc3)C(=O)c3ccccc32)cc1`, the IC50 is 197 µM (inactive) in experiment [4] and 4.19 µM (active) in experiment [5]. In general, AC50 refers to the midpoint of the concentration-response curve, whichever way the signal moves. For `COc1ccc(/C=N/Nc2cc(N3CCCC3)nc(N3CCCC3)n2)cc1`, the AC50 in experiment [6] was 3.71 µM (active).
